# Laboratory results published in patent US11331289B2, “Antimicrobial composition” (priority 2017, dated 2022).
# Experiments:
# [1] = tested on: S. aureus n°16 315; experiment: Time-killing curve, broth macrodilution; type: cell-based, Staphylococcus aureus
# Protocol: (§1) The time-killing curve is used to determine the bactericidal or bacteriostatic activity of the antibimicrobial substances. Time-killing curves of Oxyclozanide against canine isolates of Staphylococcus aureus and Staphylococcus pseudintermedius were obtained using broth macrodilution method. After contact of different fixed amounts of Oxyclozanide with an inoculum, viable bacteria are counted immediately after contact and after 1, 3, 6 and 24 hours. Counting is performed on agar medium without antimicrobial substance.
# (§2) Results are analyzed by plotting log10 CFU/ml versus time for each tested concentration. Bactericidal activity as defined by 99.9% killing of the inoculum is determined from time-killing curves by noting the presence of a ≥3 log10 decrease in CFU/ml.
# (§3) Bacterial strains were sub-cultured twice from one cryobead on Mueller Hinton agar and incubated at 37° C. for 18-24 hours. From the second subcultures, isolated colonies were transferred into tubes containing 2 ml of Mueller Hinton Broth in order to obtain bacterial suspensions at 10^8 CFU/ml, knowing that an optical density of 0.1 at 620 nm corresponds to bacterial suspension at 10^8 CFU/ml. Then, bacterial suspensions were adjusted between 5 10^7 and 1 10^8 CFU/ml by dilution in Mueller Hinton broth.
# (§4) For each concentration of Oxyclozanide to be tested, 50 μl of working solution concentrated 100× and […] of inoculum were added to 5 ml of Mueller-Hinton broth. Thus, the range of tested concentrations was from 0.125 to 8 μg/ml and the concentration of micro-organism was between 1 10^6 and 2 10^6 CFU/ml.
# (§5) At the same time, a tube without Oxyclozanide was prepared: 50 μl of DMSO and 100 μl of inoculum were added to 5 ml of Mueller-Hinton broth and used as growth control. Tubes were incubated at 36° C. under agitation.
# (§6) The numbers of viable bacteria were determined immediately after contact (TO) and after 1, 3, 6 and 24 h of incubation.
# (§7) At each time, samples of each tube were taken and dilutions were performed in Mueller-Hinton broth. Then, dilutions were spread on Mueller Hinton agar with spiral plater. After 18 h of incubation at 36° C., counting of colonies was performed with automatic colony counter which determine the concentrations of viable bacteria. The technique employed made it possible to quantify bacterial concentrations as low as 20 CFU/ml.
# (§8) Time-killing curves were plotted for each concentration of Oxyclozanide using Microsoft Excel software. The number or surviving bacteria was expressed as log10 CFU/ml. The time-killing curves of each strain represent the decrease in the viable bacteria count as a function of time for the Oxyclozanide concentrations concerned.
# (§9) Bactericidal activity as defined by 99.9% killing of the inoculum is determined from time-killing curves by noting the presence of a ≥3 log10 decrease in CFU/ml.
# [2] = tested on: S. aureus n°16 302; experiment: Time-killing curve, broth macrodilution; type: cell-based, Staphylococcus aureus
# Protocol: as §1, §2, §3, §4, §5, §6, §7, §8, §9
compound,measurement,setting,value
O=C(Nc1cc(Cl)cc(Cl)c1O)c1c(O)c(Cl)cc(Cl)c1Cl [Oxyclozanide],Bacteria reducing rate,"[1]; 0.25 μg/ml (½ MIC), 1 h",0.3 Δ log10 CFU/ml
same,Viable bacteria count,"[1]; 0.25 μg/ml (½ MIC), 1 h",6.7 Log10 CFU/ml
same,Bacteria reducing rate,"[1]; 0.25 μg/ml (½ MIC), 3 h",0.3 Δ log10 CFU/ml
same,Viable bacteria count,"[1]; 0.25 μg/ml (½ MIC), 3 h",6.7 Log10 CFU/ml
same,Bacteria reducing rate,"[1]; 0.25 μg/ml (½ MIC), 6 h",0.7 Δ log10 CFU/ml
same,Bacteria reducing rate,"[1]; 0.25 μg/ml (½ MIC), 24 h",1.8 Δ log10 CFU/ml
same,Bacteria reducing rate,"[1]; 0.5 μg/ml (MIC), 1 h",−0.1 Δ log10 CFU/ml
same,Bacteria reducing rate,"[1]; 0.5 μg/ml (MIC), 3 h",0.1 Δ log10 CFU/ml
same,Viable bacteria count,"[1]; 0.5 μg/ml (MIC), 3 h",6.6 Log10 CFU/ml
same,Bacteria reducing rate,"[1]; 0.5 μg/ml (MIC), 6 h",−0.2 Δ log10 CFU/ml
same,Bacteria reducing rate,"[1]; 0.5 μg/ml (MIC), 24 h",0.5 Δ log10 CFU/ml
same,Viable bacteria count,"[1]; 0.5 μg/ml (MIC), 24 h",7.0 Log10 CFU/ml
same,Bacteria reducing rate,"[1]; 1 μg/ml (2 MIC), 1 h",0.0 Δ log10 CFU/ml
same,Bacteria reducing rate,"[1]; 1 μg/ml (2 MIC), 3 h",0.1 Δ log10 CFU/ml
same,Viable bacteria count,"[1]; 1 μg/ml (2 MIC), 3 h",6.6 Log10 CFU/ml
same,Bacteria reducing rate,"[1]; 1 μg/ml (2 MIC), 6 h",−0.3 Δ log10 CFU/ml
same,Bacteria reducing rate,"[1]; 1 μg/ml (2 MIC), 24 h",−1.2 Δ log10 CFU/ml
same,Bacteria reducing rate,"[1]; 2 μg/ml (4 MIC), 1 h",0.1 Δ log10 CFU/ml
same,Viable bacteria count,"[1]; 2 μg/ml (4 MIC), 1 h",6.5 Log10 CFU/ml
same,Bacteria reducing rate,"[1]; 2 μg/ml (4 MIC), 3 h",0.2 Δ log10 CFU/ml
same,Viable bacteria count,"[1]; 2 μg/ml (4 MIC), 3 h",6.6 Log10 CFU/ml
same,Bacteria reducing rate,"[1]; 2 μg/ml (4 MIC), 6 h",−1.1 Δ log10 CFU/ml
same,Bacteria reducing rate,"[1]; 2 μg/ml (4 MIC), 24 h",−2.3 Δ log10 CFU/ml
same,Bacteria reducing rate,"[1]; 4 μg/ml (8 MIC), 1 h",0.0 Δ log10 CFU/ml
same,Bacteria reducing rate,"[1]; 4 μg/ml (8 MIC), 3 h",−0.7 Δ log10 CFU/ml
same,Viable bacteria count,"[1]; 4 μg/ml (8 MIC), 3 h",5.7 Log10 CFU/ml
same,Bacteria reducing rate,"[1]; 4 μg/ml (8 MIC), 6 h",−1.8 Δ log10 CFU/ml
same,Viable bacteria count,"[1]; 4 μg/ml (8 MIC), 6 h",4.6 Log10 CFU/ml
same,Bacteria reducing rate,"[1]; 4 μg/ml (8 MIC), 24 h",−5.1 Δ log10 CFU/ml
same,Bacteria reducing rate,"[1]; 8 μg/ml (16 MIC), 1 h",0.1 Δ log10 CFU/ml
same,Bacteria reducing rate,"[1]; 8 μg/ml (16 MIC), 3 h",−1.5 Δ log10 CFU/ml
same,Viable bacteria count,"[1]; 8 μg/ml (16 MIC), 3 h",4.8 Log10 CFU/ml
same,Bacteria reducing rate,"[1]; 8 μg/ml (16 MIC), 6 h",−2.3 Δ log10 CFU/ml
same,Bacteria reducing rate,"[1]; 8 μg/ml (16 MIC), 24 h",−5.0 Δ log10 CFU/ml
same,Bacteria reducing rate,"[2]; 0.25 μg/ml (½ MIC), 1 h",0.0 Δ log10 CFU/ml
same,Bacteria reducing rate,"[2]; 0.25 μg/ml (½ MIC), 3 h",0.1 Δ log10 CFU/ml
same,Bacteria reducing rate,"[2]; 0.25 μg/ml (½ MIC), 6 h",0.6 Δ log10 CFU/ml
same,Bacteria reducing rate,"[2]; 0.25 μg/ml (½ MIC), 24 h",1.7 Δ log10 CFU/ml
same,Bacteria reducing rate,"[2]; 0.5 μg/ml (MIC), 1 h",0.0 Δ log10 CFU/ml
same,Bacteria reducing rate,"[2]; 0.5 μg/ml (MIC), 3 h",0.0 Δ log10 CFU/ml
same,Bacteria reducing rate,"[2]; 0.5 μg/ml (MIC), 6 h",−0.3 Δ log10 CFU/ml
same,Bacteria reducing rate,"[2]; 0.5 μg/ml (MIC), 24 h",1.6 Δ log10 CFU/ml
same,Bacteria reducing rate,"[2]; 1 μg/ml (2 MIC), 1 h",0.0 Δ log10 CFU/ml
same,Bacteria reducing rate,"[2]; 1 μg/ml (2 MIC), 3 h",0.0 Δ log10 CFU/ml
same,Bacteria reducing rate,"[2]; 1 μg/ml (2 MIC), 6 h",−0.2 Δ log10 CFU/ml
same,Bacteria reducing rate,"[2]; 1 μg/ml (2 MIC), 24 h",1.5 Δ log10 CFU/ml
same,Viable bacteria count,"[2]; 1 μg/ml (2 MIC), 24 h",7.9 Log10 CFU/ml
same,Bacteria reducing rate,"[2]; 2 μg/ml (4 MIC), 1 h",0.0 Δ log10 CFU/ml
same,Bacteria reducing rate,"[2]; 2 μg/ml (4 MIC), 3 h",−0.1 Δ log10 CFU/ml
same,Bacteria reducing rate,"[2]; 2 μg/ml (4 MIC), 6 h",−0.5 Δ log10 CFU/ml
same,Viable bacteria count,"[2]; 2 μg/ml (4 MIC), 6 h",6.0 Log10 CFU/ml
same,Bacteria reducing rate,"[2]; 2 μg/ml (4 MIC), 24 h",−2.5 Δ log10 CFU/ml
same,Viable bacteria count,"[2]; 4 μg/ml (8 MIC), 0 h",6.5 Log10 CFU/ml
same,Bacteria reducing rate,"[2]; 4 μg/ml (8 MIC), 1 h",−0.2 Δ log10 CFU/ml
same,Bacteria reducing rate,"[2]; 4 μg/ml (8 MIC), 3 h",−0.7 Δ log10 CFU/ml
same,Viable bacteria count,"[2]; 4 μg/ml (8 MIC), 3 h",5.8 Log10 CFU/ml
same,Bacteria reducing rate,"[2]; 4 μg/ml (8 MIC), 6 h",−2.3 Δ log10 CFU/ml
same,Bacteria reducing rate,"[2]; 4 μg/ml (8 MIC), 24 h",−4.1 Δ log10 CFU/ml
same,Viable bacteria count,"[2]; 4 μg/ml (8 MIC), 24 h",2.4 Log10 CFU/ml
same,Bacteria reducing rate,"[2]; 8 μg/ml (16 MIC), 1 h",−0.8 Δ log10 CFU/ml
same,Viable bacteria count,"[2]; 8 μg/ml (16 MIC), 1 h",5.7 Log10 CFU/ml
same,Bacteria reducing rate,"[2]; 8 μg/ml (16 MIC), 3 h",−2.3 Δ log10 CFU/ml
same,Bacteria reducing rate,"[2]; 8 μg/ml (16 MIC), 6 h",−3.8 Δ log10 CFU/ml
same,Viable bacteria count,"[2]; 8 μg/ml (16 MIC), 6 h",2.7 Log10 CFU/ml
same,Bacteria reducing rate,"[2]; 8 μg/ml (16 MIC), 24 h",−5.2 Δ log10 CFU/ml
